Measured values from US20260308535A1, “ANTI-CANCER TREATMENTS AND METHODS OF USE THEREOF” (Memorial Sloan-Kettering Cancer Center, priority 2023, published 2026).

T1: IDH2 R140Q (Homo sapiens, UniProt P48735, R140Q)
T1 sequence (P48735 40-452 R140Q): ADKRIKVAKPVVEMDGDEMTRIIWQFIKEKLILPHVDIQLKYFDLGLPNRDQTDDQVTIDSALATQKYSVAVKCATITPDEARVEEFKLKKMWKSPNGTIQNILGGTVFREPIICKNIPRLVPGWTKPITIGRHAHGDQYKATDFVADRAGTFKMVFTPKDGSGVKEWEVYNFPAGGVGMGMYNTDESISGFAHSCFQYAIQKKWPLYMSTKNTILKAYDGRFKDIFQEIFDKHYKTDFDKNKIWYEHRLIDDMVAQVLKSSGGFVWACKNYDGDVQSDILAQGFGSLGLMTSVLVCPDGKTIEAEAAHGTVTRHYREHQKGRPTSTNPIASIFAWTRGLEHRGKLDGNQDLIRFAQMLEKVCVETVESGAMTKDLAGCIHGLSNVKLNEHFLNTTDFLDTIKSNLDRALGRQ

B1: IDH2 R140Q (RQ) homodimers (Homo sapiens; R140Q) (protein)
chain: T1 sequence (P48735 40-452 R140Q)

How the values were obtained:
IDH2 R140Q [1] = molecular target: T1, IDH2 R140Q; conditions: 10 μM compound; NADH 0.5 mM; αKG 10 mM; enzyme 7.5 μg/ml; 37° C.
Experimental: Briefly, enzyme reactions were set up in 384-well plate format with purified enzyme (7.5 μg/ml), NADH (0.5 mM), αKG (10 mM; added last to start reaction), and HEPES buffer. Compounds were screened using a concentration of 10 μM in DMSO. No enzyme groups were used for each condition as negative controls. […] Reactions were incubated at 37° C., and absorbance at 340 nm was monitored using an EnVision plate reader at 30-minute intervals. Results were analyzed using KNIME. Briefly, concatenated spreadsheets containing absorbance metadata (well number, plate information, absorbance read outs etc.) were merged. For baseline correction, the “no enzyme with drug” values (N1: no enzyme negative control with drug) for each condition were subtracted from the “plus enzyme with drug” values (S: enzyme with drug) for each condition. Then the baseline corrected enzyme values (S−N1) were normalized to the “no enzyme control” values (N2: no enzyme control with DMSO) to calculate robust (median based) percent of “no enzyme control” (POC) and Z-scores. […] To confirm hits, enzyme assays were carried out in the same as screening but in a 96-well plate format with 10 μM of each hit, and purified enzyme (7.5 μg/ml), NADH (0.5 mM), and αKG (10 mM). Absorbance was read at 340 nm every 15 sec for 3 hr.

IDH2 R140Q [2] = molecular target: T1, IDH2 R140Q; experiment: NADH-dependent reduction of αKG to 2HG, RQ; conditions: role: cofactor; RQ homodimers; NADH 0.25 mM; αKG 5.0 mM
IDH2 R140Q [3] = conditions: cited from earlier work
[4] = system: Ba/F3 leukemia cells with IDH2 allelic configurations; format: cell-based, mouse
Experimental: Panel A Schematic depicting IDH2 dimers retrovirally transduced into Ba/F3 cells. ‘Pre’received IDH2 WT-mCherry plus IDH2 RQ-YFP; ‘Trans’ received IDH2 RQ-YFP plus IDH2 IM-GFP; ‘Cis’ received IDH2 WT-mCherry plus IDH2 RQ/IM-GFP. […] Panel C Competitive growth of ‘Pre’, ‘Trans’, and ‘Cis’ cells mixed at a 1:1:1 ratio and cultured with vehicle (DMSO) or the mutant IDH2 inhibitor enasidenib (100 nM). Changes in the percentage of ‘Pre’, ‘Trans’, and ‘Cis’ cells were assessed weekly by flow cytometry (n=3). […] Results throughout figure are representative of >3 independent experiments. Data are mean±SEM unless otherwise specified. **P<0.01, ***P<0.001, ****P<0.0001.
Cells harboring these distinct allelic configurations were marked with different combinations of fluorescent proteins (FIG. 1 panel B).

IDH2 R172X = experiment: Effect of EDBN on IDH2 R172X mutations; format: biochemical; conditions: FIG. 50
[5] = substrate: O=C(O)CCC(=O)C(=O)O; experiment: NADPH-dependent 2HG production, Michaelis-Menten kinetics, active-site RQ homodimers; format: biochemical, human; conditions: other: role: substrate, cofactor NADPH 0.33 mM, enzyme 7.5 μg/ml, 37.0 °C

Molecule	Z-Score, Screen #1 (IDH2 R140Q [1])	Z-Score, Screen #2 (IDH2 R140Q [1])	other results
O=c1c(O)c(-c2ccc(O)c(O)c2)oc2c(O)c(O)cc(O)c12 [Gossypetin]	9.982	13.35	
NC(=O)C1=CN([C@@H]2O[C@H](COP(=O)(O)OP(=O)(O)OC[C@H]3O[C@@H](n4cnc5c(N)ncnc54)[C@H](O)[C@@H]3O)[C@@H](O)[C@H]2O)C=CC1 [NADH, nicotinamide adenine dinucleotide]			use of NADH to reduce αKG (IDH2 R140Q [2]): no ability to use NADH to reduce αKG
CC(=O)O[C@@H]1C[C@H]2C(C)(C)C(=O)CC[C@]2(C)[C@H]2CC[C@@]3(C)[C@H](c4ccoc4)OC(=O)[C@H]4O[C@]43[C@@]21C [Dihydrogedunin]	9.578	4.452	
CC(=O)O[C@@H]1C[C@H]2C(C)(C)C(=O)C=C[C@]2(C)[C@H]2CC[C@]3(C)C(=CC(=O)O[C@H]3c3ccoc3)[C@@]21C [Deoxygedunin]	7.959	7.554	
CC(C)(O)CNc1nc(Nc2ccnc(C(F)(F)F)c2)nc(-c2cccc(C(F)(F)F)n2)n1 [enasidenib]			effect of allosteric binding on active site conformation (IDH2 R140Q [3]): can stabilize inhibitory open conformation; competitive growth of 'Cis' cells [4]: selective growth disadvantage; competitive growth of 'Trans' cells [4]: selectively grew out in the presence of enasidenib
COC1=C(OC)C(=O)C(CCCCCCCCCCO)=C(C)C1=O [Idebenone]	11.33	8.499	
CCc1ccc2[nH]c3nc(C)cc(C)c3c(=O)c2c1 [EDBN, 7-ethyl-2,4-dimethylbenzo[b][1,8]naphthyridin-5(10H)-one]			activity on IDH2 R172X mutations (IDH2 R172X): also works on IDH2 R172X mutations
B1			Km [5]: 1740 µM; Vmax [5]: 6.95 µM/min; kcat/Km [5]: 2.14e+06 M⁻¹ s⁻¹
